Reference: US20190183960A1, “METHOD TO TREAT ASTHMA AND AIRWAY ALLERGY USING CYCLO TYROSINE-VALINE AND RELATED COMPOUNDS” (Chang Gung Biotechnology Corp., priority 2017, published 2019)
Each block holds one compound with its values, some of them ahead of it.

What was measured:
[1] = tested on: IL-4 secretion by Th2 cells; test: IL-4 secretion by Th2 cells derived from BALB/c mice (ELISA); type: cell-based; conditions: 3 days; for secretion of pro-inflammatory IL-4 by Th2 cells: 2.3 μM, vs vehicle (0.5% DMSO)
Protocol: Given that Th2 cells mediate the immunological effects of asthma in humans and animals, we tested the effects of cyclo Tyr-Val on Th2 cells in culture. Naive T cells were isolated from BALB/c mice, and the cells were incubated in a culture medium containing anti-CD3 antibody (2 μg/ml), anti-CD28 antibody (2 μg/ml), anti-interferon-γ (IFN-γ) antibody (10 μg/ml), and IL-4 (10 ng/ml) in order to induce T cell differentiation into Th2 cells. The Th2 cells were treated for 3 days with 2.3 μM of cyclo Tyr-Val, cyclo alanine-isoleucine (cyclo Ala-Ile), cyclo alanine-leucine (cyclo Ala-Leu), cyclo tyrosine-leucine (cyclo Tyr-Leu), cyclo alanine-phenylalanine (cyclo Ala-Phe), or cyclo tyrosine-isoleucine (cyclo Tyr-Ile), and IL-4 protein level was measured using an enzyme-linked immunosorbent assay (ELISA) kit (eBioscience, USA).
(§1) We confirmed that cyclo Tyr-Val inhibits IL-4 secretion by Th2 cells. Th2 cells isolated from BALB/c or C57BL/6J mice were either left untreated or treated for 3 days with the vehicle (0.5% DMSO in saline) or various concentrations of cyclo Tyr-Val, followed by detection of IL-4 production using ELISA.
(§2) The effects of cyclo Tyr-Val on the secretion of other pro-inflammatory cytokines were investigated. […] As shown in FIGS. 4A-4C, cyclo Tyr-Val inhibited not only the secretion of IL-4, but also that of IL-5 and IL-13.

[2] = Blood biochemical parameters (hepatic and renal functions) in mice; type: in vivo; conditions: IP 11.304 nmol/kg
Protocol: The effects of cyclo Tyr-Val treatment on hepatic and renal functions in mice were evaluated to determine if the compound produces toxic side effects. For these experiments, saline-treated mice (control group) or OVA-induced asthmatic mice were intraperitoneally treated with the vehicle (0.5% DMSO in saline) or cyclo Tyr-Val (at a dose of 11.304 nmol/kg), followed by measurement of blood biochemical parameters, including levels of aspartate transaminase (AST), alanine transaminase (ALT), total bilirubin (T-BIL), albumin (ALB), blood urea nitrogen (BUN), creatinine (CREA), and uric acid (UA). The blood biochemical parameters were monitored using a Hitachi 7080 biochemical analyzer (Hitachi, Japan).

Th2 cells = test: Viability of Th2 cells (WST-1 kit); type: cell-based, BALB/c mice; conditions: 0.018-285.932 μM, 3 days
Protocol: Experiments were performed to examine the effects of cyclo Tyr-Val on cell viability. Th2 cells isolated from BALB/c mice were either left untreated or treated for 3 days with the vehicle (0.5% DMSO in saline) or cyclo Tyr-Val at a concentration of 0.018, 0.091, 0.457, 2.287, 11.438, 57.186, or 285.932 μM. The viability of these cells was assessed using the WST-1 kit (Roche, Switzerland) according to the manufacturer's instructions.

[3] = tested on: OVA-induced asthmatic mice; test: BALF total cell and eosinophil count in OVA-induced asthmatic mice; type: in vivo, BALB/c mice; conditions: IP 0.11304-113.04 nmol/kg per day, day 21 to 27
Description: (§3) Given that asthma is characterized by accumulation of immune cells including eosinophils in lung tissues, we studied the effects of cyclo Tyr-Val on BALF cell count, pro-inflammatory cytokine secretion, and antibody production. OVA-induced asthmatic mice (BALB/c) were established according to the method described in Example 2. After the mice were intraperitoneally treated with the vehicle (0.5% DMSO in saline) or cyclo Tyr-Val at a dose of 0.11304, 1.1304, 11.304, or 113.04 nmol/kg of body weight per day on day 21 to 27, BALF and serum were collected. Total cell count in BALF was determined using a hemocytometer; eosinophils were counted after isolation using Cytospin. Protein levels of IL-4, IL-5, and IL-13 in BALF were determined using ELISA. Serum protein levels of OVA-specific antibodies, including IgE, IgG1, and IgG2a, were determined using ELISA (eBioscience).

[4] = tested on: IL-4 secretion by Th2 cells; test: IL-4 secretion by Th2 cells derived from C57BL/6J mice (ELISA); type: cell-based; conditions: 3 days
Description: as §1

[5] = tested on: OVA-induced asthmatic mice; test: Mode of administration (IP, inhalation, oral) in OVA-induced asthmatic mice; type: in vivo, BALB/c mice; conditions: 11.304 nmol/kg per day, 7 days
Protocol: This example illustrates the effects of the mode of administration of cyclo Tyr-Val on asthmatic mice. OVA-induced asthmatic mice (BALB/c) were established according to the method described in Example 2. On day 21, the mice were treated intraperitoneally (IP), by inhalation (IH), or orally with cyclo Tyr-Val (at a dose of 11.304 nmol/kg of body weight per day) for 7 days, followed by assessment of AHR, total cell count in BALF, and eosinophil count in BALE OVA-induced asthmatic mice that were administered daily with the vehicle (0.5% DMSO in saline) intraperitoneally were used as control. As shown in FIGS. 9A-9C, treatment of OVA-induced asthmatic mice with cyclo Tyr-Val for 7 days via intraperitoneal injection, inhalation, or the oral route reduced AHR, total BALF cell count, and BALF eosinophil accumulation, compared with the vehicle-treated group.

[6] = tested on: OVA-induced asthmatic mice; test: Serum OVA-specific antibodies in OVA-induced asthmatic mice (ELISA); type: in vivo, BALB/c mice; conditions: IP 0.11304-113.04 nmol/kg per day, day 21 to 27
Description: as §3

[7] = tested on: OVA-induced asthmatic mice; test: OVA-induced airway hyperresponsiveness (Penh, whole-body plethysmography, methacholine); type: in vivo, BALB/c mice; conditions: IP 0.11304-113.04 nmol/kg per day, day 21 to 27, methacholine 0-40 mg/ml
Protocol: Given that asthma is characterized by hyperresponsiveness to airway stimulants, we examined the effect of cyclo Tyr-Val on AHR in the OVA-induced asthmatic mice stimulated with the exemplary antigen OVA and methacholine (Mch). BALB/c mice were treated intraperitoneally with 50 μg of OVA (Sigma, USA) mixed with 0.8 mg of aluminum hydroxide (Thermo Fischer Scientific, USA) on day 0, 1, 2, and 14, and treated with 2% OVA for 20 minutes using a nebulizer (Pulmo-Aide 5650D; DeVilbiss, USA) on day 14, 17, 21, 24, and 27. The OVA-induced asthmatic mice were intraperitoneally treated with the vehicle (0.5% DMSO in saline) or cyclo Tyr-Val at a dose of 0.11304, 1.1304, 11.304, or 113.04 nmol/kg of body weight per day on day 21 to 27. Airway resistance (Penh) was measured using a whole-body plethysmography (WBP) chamber (Buxco Electronics, USA) after stimulation with methacholine at doses of 0, 10, 20, 30, and 40 mg/ml.

[8] = tested on: OVA-induced asthmatic mice; test: Treatment after establishment of OVA-induced AHR, comparison with dexamethasone; type: in vivo, BALB/c mice; conditions: IP 11.304 nmol/kg per day, day 28 to 34, after establishment of AHR
Protocol: In this example, the anti-asthmatic effect of cyclo Tyr-Val was compared with those of dexamethasone, a pharmaceutical drug conventionally used to treat asthma. OVA-induced asthmatic mice (BALB/c) were established according to the method described in Example 2. The mice were treated with 2% OVA using a nebulizer on day 30 and 33 and were intraperitoneally treated with the vehicle (0.5% DMSO in saline) or cyclo Tyr-Val (at a dose of 11.304 nmol/kg of body weight per day) on day 28 to 34, followed by measurement of AHR, total cell count in BALF, and eosinophil count in BALF. Another group of OVA-induced asthmatic mice that were treated orally with dexamethasone (at a dose of 3 mg/kg of body weight per day) on day 28 to 34 were used as a positive control.

[9] = tested on: IL-5 secretion by Th2 cells; test: IL-5 secretion by Th2 cells derived from BALB/c mice (ELISA); type: cell-based; conditions: 0.25 μM, 3 days
Description: as §2

[10] = tested on: OVA-induced asthmatic mice; test: IL-4, IL-5, IL-13 protein levels in BALF of OVA-induced asthmatic mice (ELISA); type: in vivo, BALB/c mice; conditions: IP 0.11304-113.04 nmol/kg per day, day 21 to 27
Description: as §3

[11] = tested on: IL-13 secretion by Th2 cells; test: IL-13 secretion by Th2 cells derived from BALB/c mice (ELISA); type: cell-based; conditions: 0.25 μM, 3 days
Description: as §2

Structure (SMILES): CC(C)C[C@@H]1NC(=O)[C@H](C)NC1=O [cyclo Ala-Leu, cyclo alanine-leucine, reference compound]
secretion of pro-inflammatory IL-4 by Th2 cells [1]: failed to inhibit IL-4 secretion

Structure (SMILES): CC[C@H](C)[C@@H]1NC(=O)[C@H](C)NC1=O [cyclo Ala-Ile, cyclo alanine-isoleucine, reference compound]
secretion of pro-inflammatory IL-4 by Th2 cells [1]: failed to inhibit IL-4 secretion

Structure (SMILES): CC1NC(=O)C(Cc2ccccc2)NC1=O (stereo not shown) [cyclo Ala-Phe, cyclo alanine-phenylalanine, reference compound]
secretion of pro-inflammatory IL-4 by Th2 cells [1]: failed to inhibit IL-4 secretion

Structure (SMILES): CC(C)CC1NC(=O)C(Cc2ccc(O)cc2)NC1=O (stereo not shown) [cyclo Tyr-Leu, cyclo tyrosine-leucine]
secretion of pro-inflammatory IL-4 by Th2 cells [1]: inhibited IL-4 to some extent

ALB ([2]; OVA-induced asthmatic mice): 2.737 ± 0.322 g/dL
BUN ([2]; OVA-induced asthmatic mice): 25.864 ± 2.638 mg/dL
CREA ([2]; OVA-induced asthmatic mice): 0.250 ± 0.078 mg/dL
T-BIL ([2]; OVA-induced asthmatic mice): 26.508 ± 2.454 µg/dL
UA ([2]; OVA-induced asthmatic mice): 2.690 ± 0.275 mg/dL
hepatic or renal functions ([2]; control and OVA-induced asthmatic mice): did not significantly affect
ALB ([2]; control mice): 2.669 ± 0.480 g/dL
BUN ([2]; control mice): 26.588 ± 2.756 mg/dL
CREA ([2]; control mice): 0.236 ± 0.124 mg/dL
T-BIL ([2]; control mice): 26.169 ± 3.536 µg/dL
UA ([2]; control mice): 2.979 ± 0.412 mg/dL
IC50 ([4]; Mus musculus, 72 h, Th2 cells from C57BL/6J mice, read-out: IC50, inhibition of IL-4 secretion): 45.1 nM
IC90 ([4]; Mus musculus, 72 h, Th2 cells from C57BL/6J mice, read-out: IC90, inhibition of IL-4 secretion): 357 nM
IC50 ([1]; Mus musculus, 72 h, Th2 cells from BALB/c mice, read-out: IC50, inhibition of IL-4 secretion): 26.4 nM
IC90 ([1]; Mus musculus, 72 h, Th2 cells from BALB/c mice, read-out: IC90, inhibition of IL-4 secretion): 252 nM
Structure (SMILES): CC(C)C1NC(=O)C(Cc2ccc(O)cc2)NC1=O (stereo not shown) [cyclo Tyr-Val, cyclo tyrosine-valine]
ALT ([2]; OVA-induced asthmatic mice): 26.673 ± 2.279 U/l
AST ([2]; OVA-induced asthmatic mice): 69.718 ± 4.115 U/l
ALT ([2]; control mice): 26.283 ± 2.813 U/l
AST ([2]; control mice): 70.775 ± 3.056 U/l
cytotoxic effects on cultured Th2 cells (viability) (Th2 cells): no cytotoxic effects
OVA-induced cell infiltration in BALF (total cell count) [3]: reduced
OVA-induced eosinophilia in BALF [3]: reduced
IL-4 secretion, dose dependence ([4]; various concentrations, C57BL/6J Th2 cells): inhibited IL-4 secretion in a dose-dependent manner
AHR ([5]; inhalation): reduced
BALF eosinophil accumulation ([5]; inhalation): reduced
total BALF cell count ([5]; inhalation): reduced
AHR ([5]; intraperitoneal injection): reduced
BALF eosinophil accumulation ([5]; intraperitoneal injection): reduced
total BALF cell count ([5]; intraperitoneal injection): reduced
AHR ([5]; oral route): reduced
BALF eosinophil accumulation ([5]; oral route): reduced
total BALF cell count ([5]; oral route): reduced
OVA-specific IgE production in sera [6]: dose-dependently reduces
OVA-specific IgG1 production in sera [6]: dose-dependently reduces
OVA-specific IgG2a production in sera [6]: dose-dependently reduces
OVA-induced AHR (airway resistance, Penh) [7]: inhibited OVA-induced AHR in a dose-dependent manner
AHR [8]: significantly reduced
BALF eosinophil accumulation [8]: significantly reduced
BALF total cell count [8]: significantly reduced
secretion of IL-5 [9]: inhibited
OVA-induced secretion of IL-4 in BALF [10]: reduced
OVA-induced secretion of IL-5 in BALF [10]: reduced
OVA-induced secretion of IL-13 in BALF [10]: reduced
secretion of IL-4 ([1]; 0.25 μM): inhibited
secretion of pro-inflammatory IL-4 by Th2 cells [1]: significantly inhibited
IL-4 secretion, dose dependence ([1]; various concentrations, BALB/c Th2 cells): inhibited IL-4 secretion in a dose-dependent manner
secretion of IL-13 [11]: inhibited

Structure (SMILES): CC[C@H](C)[C@@H]1NC(=O)[C@H](Cc2ccc(O)cc2)NC1=O [cyclo Tyr-Ile, cyclo tyrosine-isoleucine, reference compound]
secretion of pro-inflammatory IL-4 by Th2 cells [1]: failed to inhibit IL-4 secretion
